Measured values from US20070173450A1, “PROCESS FOR THE SYNCHRONIZATION OF OVULATION FOR TIMED BREEDING WITHOUT HEAT DETECTION” (priority 2003, published 2007).

How the values were obtained:
Format in all cases: in vivo, swine
[1] = system: mature postpartum sows; test: Intravulvar deslorelin at estrus detection in mature postpartum sows, AI breeding; conditions: live piglets born per litter, treated versus control
Method: Sows were assigned randomly in blocks of two to either control or to be injected intravulvar with 50 mcg of deslorelin in SAIB at the time of estrus detection for sows first detected in estrus in the a.m. and 12 hours later for those first detected in estrus in the p.m. Treated animals were bred AI upon detected estrus and again 24 hours later if still in estrus. Controls received a saline injection on first detected estrus behavior estrus detection and were bred according to the farm's normal procedures.

[2] = system: postpartum sows; test: Single timed deslorelin injection 96 h post-weaning, single timed insemination without estrus detection; conditions: 50 mcg deslorelin in SAIB 96 h post-weaning
Method: Approximately 170 postpartum sows were randomly divided into two equal groups comprised of controls and treated. Following weaning, the controls were detected for estrus and bred following the normal standard operating procedures for the farms on which they resided. The treated sows received a 50 mcg dose of deslorelin in SAIB at 96 hours post-weaning and were bred with a single insemination 28+/−2 hours later with no regard to estrus detection. The sows were examined for pregnancy by ultrasound at 21 days and slaughtered around 28 days post breeding. The entire reproductive tract was removed and corpora lutea and embryos were counted.

[3] = system: postpartum sows; test: Litter size after deslorelin treatment in sows at three farm sites; conditions: Tables 3-5, three farm sites, regardless of estrus detection
Excerpt: Postpartum sows were randomly distributed into three different groups comprised of Controls, Treatment 1, and Treatment 2, with the exception of Site 3, which was divided into two groups, Control and Treatment 2. Control sows were detected for estrus following weaning, and bred following the normal standard operating procedures for the farms on which they resided. Treatment 1 sows were detected for estrus following weaning, and received a 50 mcg dose of deslorelin in the morning when standing and were bred by AI 4 hours later and again at 24+/−2 hours later. Treatment 2 sows received a 50 mcg dose of deslorelin in SAIB at 96 or 120 hours post-weaning and were bred with a single insemination 28+/−2 hours later with no regard to estrus detection.

## CCNC(=O)[C@@H]1CCCN1C(=O)[C@H](CCCN=C(N)N)NC(=O)[C@H](CC(C)C)NC(=O)[C@@H](Cc1c[nH]c2ccccc12)NC(=O)[C@H](Cc1ccc(O)cc1)NC(=O)[C@H](CO)NC(=O)[C@H](Cc1c[nH]c2ccccc12)NC(=O)[C@H](Cc1cnc[nH]1)NC(=O)[C@@H]1CCC(=O)N1 [Deslorelin, deslorelin]
[1]
  Live piglet number, Deslorelin versus Saline sows (greater by): Live piglet number 0.6> in Deslorelin versus Saline sows.
[2]; single AI 28+/-2 h later, no estrus detection
  Pregnancy Rate: 71%
[2]; slaughter around 28 days post breeding
  Embryo Survival: 64%
[2]; of 84 in group, single AI 28+/-2 h later, no estrus detection
  Sows Pregnant: 60
[3]
  litter sizes (in words): normal litter sizes
